Results reported in ChEMBL document CHEMBL1275247, “Pharmacokinetics and safety of CXA-101, a new antipseudomonal cephalosporin, in healthy adult male and female subjects receiving single- and multiple-dose intravenous infusions” (Antimicrob Agents Chemother, 2010).

Key:
[1] = Cmax in healthy human at 1000 mg, iv administered as single dose as 1 hr iv infusion; format: ADME, organism-based; parameters: dose 1000 mg, route intravenous; conditions: in vivo
[2] = Cmax in healthy human at 1500 mg, iv administered as single dose as 1 hr iv infusion; format: ADME, organism-based; parameters: dose 1500 mg, route intravenous; conditions: in vivo
[3] = Tmax in healthy human at 1000 mg, iv administered as single dose as 1 hr iv infusion; format: ADME, organism-based; conditions: in vivo
[4] = AUC (0 to infinity) in healthy human at 500 mg, iv administered as single dose as 1 hr iv infusion; format: ADME, organism-based; parameters: dose 500 mg, time infinity, route intravenous; conditions: plasma
[5] = Clearance in healthy human at 250 mg, iv administered as single dose as 1 hr iv infusion; format: ADME, organism-based; conditions: in vivo
[6] = Clearance in healthy human at 1000 mg, iv administered as single dose as 1 hr iv infusion; format: ADME, organism-based; conditions: in vivo
[7] = Renal clearance in healthy human at 250 mg, iv administered as single dose as 1 hr iv infusion; format: ADME, organism-based, Kidney; conditions: in vivo, read-out: CL_renal
[8] = Renal clearance in healthy human at 500 mg, iv administered as single dose as 1 hr iv infusion; format: ADME, organism-based, Kidney; conditions: in vivo, read-out: CL_renal
[9] = Renal clearance in healthy human at 1000 mg, iv administered as single dose as 1 hr iv infusion; format: ADME, organism-based, Kidney; conditions: in vivo, read-out: CL_renal
[10] = Volume of distribution at steady state in healthy human at 250 mg, iv administered as single dose as 1 hr iv infusion; format: ADME, organism-based; conditions: in vivo
[11] = Volume of distribution at steady state in healthy human at 1000 mg, iv administered as single dose as 1 hr iv infusion; format: ADME, organism-based; conditions: in vivo
[12] = Volume of distribution at steady state in healthy human at 1500 mg, iv administered as single dose as 1 hr iv infusion; format: ADME, organism-based; conditions: in vivo
[13] = Half-life in plasma of healthy human 250 mg administered as single ascending dose, iv for 1 hr infusion; format: ADME, organism-based
[14] = Half-life in plasma of healthy human 2000 mg administered as single ascending dose, iv for 1 hr infusion; format: ADME, organism-based
[15] = Drug recovery in urine of healthy human at 500 mg, iv administered as single dose as 1 hr iv infusion after 24 hrs; format: ADME, organism-based; conditions: read-out: Activity
[16] = Volume of distribution at steady state in healthy human at 2000 mg, iv administered as single dose as 1 hr iv infusion; format: ADME, organism-based; conditions: in vivo
Homo sapiens [17] = assay: Toxicity in healthy human assessed as occurrence of headache at 1000 mg, iv administered as single dose as 1 hr iv infusion; format: organism-based; conditions: in vivo
Homo sapiens [18] = assay: Toxicity in healthy human assessed as occurrence of headache at 1500 mg, iv administered as single dose as 1 hr iv infusion; format: organism-based; conditions: in vivo
Homo sapiens [19] = assay: Toxicity in healthy human assessed as occurrence of somnolence at 1000 mg, iv administered as single dose as 1 hr iv infusion; format: organism-based; conditions: in vivo
Homo sapiens [20] = assay: Toxicity in healthy human assessed as occurrence of vulvo-vaginal pruritus at 1500 mg, iv administered as single dose as 1 hr iv infusion; format: organism-based; conditions: in vivo
Homo sapiens [21] = assay: Toxicity in healthy human assessed as occurrence of paraesthesia at 500 mg, iv administered as 1 hr infusion every 8 hrs for 10 days; format: organism-based; conditions: in vivo
[22] = Cmax in healthy human at 1500 mg, iv administered as 1 hr infusion every 12 hrs for 10 days measured on day 1; format: ADME, organism-based; parameters: dose 1500 mg, route intravenous; conditions: in vivo
[23] = Tmax in healthy human at 500 mg, iv administered as 1 hr infusion every 8 hrs for 10 days measured on day 1; format: ADME, organism-based; conditions: in vivo
[24] = Tmax in healthy human at 500 mg, iv administered as 1 hr infusion every 8 hrs for 10 days measured on day 10; format: ADME, organism-based; conditions: in vivo
[25] = Tmax in healthy human at 1000 mg, iv administered as 1 hr infusion every 8 hrs for 10 days measured on day 1; format: ADME, organism-based; conditions: in vivo
[26] = Clearance in healthy human at 500 mg, iv administered as 1 hr infusion every 8 hrs for 10 days measured on day 1; format: ADME, organism-based; conditions: in vivo
[27] = Clearance in healthy human at 500 mg, iv administered as 1 hr infusion every 8 hrs for 10 days measured on day 10; format: ADME, organism-based; conditions: in vivo
[28] = Clearance in healthy human at 1000 mg, iv administered as 1 hr infusion every 8 hrs for 10 days measured on day 1; format: ADME, organism-based; conditions: in vivo
[29] = Clearance in healthy human at 1500 mg, iv administered as 1 hr infusion every 12 hrs for 10 days measured on day 1; format: ADME, organism-based; conditions: in vivo
[30] = Clearance in healthy human at 1500 mg, iv administered as 1 hr infusion every 12 hrs for 10 days measured on day 10; format: ADME, organism-based; conditions: in vivo
[31] = Renal clearance in healthy human at 1000 mg, iv administered as 1 hr infusion every 8 hrs for 10 days measured on day 10; format: ADME, organism-based, Kidney; conditions: in vivo, read-out: CL_renal
[32] = Renal clearance in healthy human at 1500 mg, iv administered as 1 hr infusion every 12 hrs for 10 days measured on day 10; format: ADME, organism-based, Kidney; conditions: in vivo, read-out: CL_renal
[33] = Volume of distribution at steady state in healthy human at 500 mg, iv administered as 1 hr infusion every 8 hrs for 10 days measured on day 1; format: ADME, organism-based; conditions: in vivo
[34] = Volume of distribution at steady state in healthy human at 1000 mg, iv administered as 1 hr infusion every 8 hrs for 10 days measured on day 1; format: ADME, organism-based; conditions: in vivo
[35] = Volume of distribution at steady state in healthy human at 1000 mg, iv administered as 1 hr infusion every 8 hrs for 10 days measured on day 10; format: ADME, organism-based; conditions: in vivo
[36] = Volume of distribution at steady state in healthy human at 1500 mg, iv administered as 1 hr infusion every 12 hrs for 10 days measured on day 1; format: ADME, organism-based; conditions: in vivo
[37] = Half-life in plasma of healthy human 500 mg, iv administered as 1 hr infusion every 8 hrs for 10 days measured on day 10; format: ADME, organism-based
[38] = Half-life in plasma of healthy human 1500 mg, iv administered as 1 hr infusion every 12 hrs for 10 days measured on day 10; format: ADME, organism-based
[39] = Mean residence time in healthy human at 500 mg, iv administered as 1 hr infusion every 8 hrs for 10 days measured on day 10; format: ADME, organism-based; conditions: in vivo
[40] = Mean residence time in healthy human at 1500 mg, iv administered as 1 hr infusion every 12 hrs for 10 days measured on day 1; format: ADME, organism-based; conditions: in vivo
[41] = Mean residence time in healthy human at 1500 mg, iv administered as 1 hr infusion every 12 hrs for 10 days measured on day 10; format: ADME, organism-based; conditions: in vivo
[42] = Drug recovery in urine of healthy human at 500 mg, iv administered as 1 hr infusion every 8 hrs for 10 days measured on day 10; format: ADME, organism-based; conditions: read-out: Activity
[43] = Drug recovery in urine of healthy human at 1500 mg, iv administered as 1 hr infusion every 12 hrs for 10 days measured on day 1; format: ADME, organism-based; conditions: read-out: Activity
[44] = Drug recovery in urine of healthy human at 1500 mg, iv administered as 1 hr infusion every 12 hrs for 10 days measured on day 10; format: ADME, organism-based; conditions: read-out: Activity
[45] = Cmax in healthy human at 250 mg, iv administered as single dose as 1 hr iv infusion; format: ADME, organism-based; parameters: dose 250 mg, route intravenous; conditions: in vivo
[46] = Cmax in healthy human at 500 mg, iv administered as single dose as 1 hr iv infusion; format: ADME, organism-based; parameters: dose 500 mg, route intravenous; conditions: in vivo

Cmax [1]: 58.4 µg/mL | Cmax [2]: 87.4 µg/mL | Tmax [3]: 1.05 h | AUC(0-inf) [4]: 84100 ng·h/mL | clearance [5]: 104 mL/min | clearance [6]: 110 mL/min | CL renal at 1 h [7]: 101 mL/min | CL renal at 1 h [8]: 90.4 mL/min | CL renal at 1 h [9]: 93.4 mL/min | Vd [10]: 13.1 L | Vd [11]: 16.3 L | Vd [12]: 17.6 L | half-life [13]: 1.86 h | half-life [14]: 2.45 h | dose excreted at 24 h [15]: 91.2% | Vd [16]: 14.8 L | Cmax [22]: 85.4 µg/mL | Tmax [23]: 1.03 h | Tmax [24]: 0.93 h | Tmax [25]: 1.03 h | clearance [26]: 94.6 mL/min | clearance [27]: 101 mL/min | clearance [28]: 112 mL/min | clearance [29]: 114 mL/min | clearance [30]: 121 mL/min | CL renal [31]: 111 mL/min | CL renal [32]: 127 mL/min | Vd [33]: 13.8 L | Vd [34]: 17.8 L | Vd [35]: 17.1 L | Vd [36]: 18.1 L | half-life [37]: 2.2 h | half-life [38]: 2.34 h | MRT [39]: 2.32 h | MRT [40]: 2.64 h | MRT [41]: 2.5 h | dose excreted at 10 day [42]: 84.6% | dose excreted at 1 day [43]: 104% | dose excreted at 10 day [44]: 105% | Cmax [45]: 16.5 µg/mL | Cmax [46]: 32.2 µg/mL
SMILES: Cn1c(N)c(NC(=O)NCCN)c[n+]1CC1=C(C(=O)O)N2C(=O)[C@@H](NC(=O)/C(=N\OC(C)(C)C(=O)[O-])c3nsc(N)n3)[C@H]2SC1 [CEFTOLOZANE]
Activity (Homo sapiens [17]): Non-toxic | Activity (Homo sapiens [18]): Non-toxic | Activity (Homo sapiens [19]): Non-toxic | Activity (Homo sapiens [20]): Non-toxic | Activity (Homo sapiens [21]): Non-toxic
